Here are results for ten compounds from ChEMBL document CHEMBL1201862, “PubChem BioAssay data set” (2004).

Among the test systems are EKVX; SR; NCI-H226; ACHN; A498; SNB-19; MCF7; SF-295; LOX IMVI; SK-MEL-2; SW-620; NCI-H522; HCT-116; SNB-75; KM12; K562; TK-10; A549; OVCAR-8; RXF 393.
Common to all, as to assay: NCI tumour cell line growth inhibition, 48 h

SMILES strings stand for the structures.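 Five concentrations, 48 hours, 96-well plates. GI50 marks 50% less growth.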 Active and inactive are the calls of the source. Cut-off read from the data, not from the text of the source: active = GI50 up to about 1.1 µM and inactive = higher.

Regarding `O=C(O)c1nn(-c2ccccc2-c2nnc(O)nc2O)c(=O)[nH]c1=O`, the GI50 in the experiment with EKVX, in the experiment with SR, with NCI-H226, in the experiment with ACHN, in the experiment on A498 and in the experiment on SNB-19 was > 100 µM (inactive) each time. Moreover, the GI50 with MCF7, with SF-295, with LOX IMVI, in the experiment on SK-MEL-2, in the experiment on SW-620 and in the experiment on NCI-H522 was > 100 µM (inactive) throughout. In addition, the GI50 in the experiment on HCT-116 was > 100 µM (inactive); with SNB-75 it was > 100 µM (inactive); in the experiment on KM12 it was > 100 µM (inactive); in the experiment on K562, 2.47 µM (inactive); with TK-10 it was > 100 µM (inactive); in the experiment on A549, > 100 µM (inactive). Moreover, the GI50 in the experiment with OVCAR-8 and in the experiment on RXF 393 was > 100 µM (inactive) in each case.

Consider `CN1CCCN(C)C1c1cc([N+](=O)[O-])ccc1O`, for which the GI50 is 38.6 µM (inactive) in the experiment on EKVX; 21.6 µM (inactive) with SR; 34.1 µM (inactive) in the experiment on NCI-H226; 20.9 µM (inactive) in the experiment with ACHN; > 100 µM (inactive) with A498; 30.8 µM (inactive) in the experiment with SNB-19. Besides, the GI50 with MCF7 was 19.8 µM (inactive); in the experiment on SF-295 it was 37.3 µM (inactive); in the experiment with LOX IMVI, 19.4 µM (inactive); in the experiment on SK-MEL-2, 31 µM (inactive); in the experiment with SW-620, 70.6 µM (inactive); in the experiment on NCI-H522, 33.9 µM (inactive). Further, the GI50 was 32.6 µM (inactive) with HCT-116; 31.1 µM (inactive) in the experiment on SNB-75; 36.6 µM (inactive) in the experiment with KM12; 39 µM (inactive) in the experiment on K562; 56.1 µM (inactive) with TK-10; > 100 µM (inactive) in the experiment on A549. In addition, the GI50 is 35.6 µM (inactive) in the experiment with OVCAR-8 and 41.4 µM (inactive) in the experiment with RXF 393.

`CC(=O)NNc1nc(-c2ccc([N+](=O)[O-])cc2)c(C#N)c(=O)n1C`: the GI50 in the experiment with EKVX is 38 µM (inactive); in the experiment on SR, 13.9 µM (inactive); in the experiment with ACHN, > 100 µM (inactive); in the experiment on A498 it was 25.5 µM (inactive); with SNB-19 it was > 100 µM (inactive); in the experiment on MCF7 it was 28.5 µM (inactive). The GI50 in the experiment with SF-295 is 47.5 µM (inactive); with LOX IMVI, 16.9 µM (inactive); in the experiment with SK-MEL-2, > 100 µM (inactive); in the experiment on SW-620 it was 33.4 µM (inactive); in the experiment with NCI-H522 it was 22.1 µM (inactive); with HCT-116, 34.5 µM (inactive). For the same compound, the GI50 is 18.9 µM (inactive) in the experiment on SNB-75; 54.1 µM (inactive) in the experiment with KM12; 24.3 µM (inactive) in the experiment on K562; 24 µM (inactive) in the experiment on TK-10; > 100 µM (inactive) in the experiment on A549; 27 µM (inactive) with OVCAR-8. Also, in the experiment on RXF 393, the GI50 was 57 µM (inactive).

Take `O=C(NC(=O)c1cc(-c2ccccc2)n[nH]1)c1ccccc1`: the GI50 was > 100 µM (inactive) in the experiment with EKVX; 24 µM (inactive) with SR; > 100 µM (inactive) with NCI-H226; > 100 µM (inactive) in the experiment with ACHN; > 100 µM (inactive) in the experiment on A498; > 100 µM (inactive) in the experiment with MCF7. For the same compound, the GI50 is > 100 µM (inactive) with SF-295; > 100 µM (inactive) with LOX IMVI; > 100 µM (inactive) with SK-MEL-2; > 100 µM (inactive) in the experiment on SW-620; 70.8 µM (inactive) with NCI-H522; > 100 µM (inactive) in the experiment on HCT-116. Further, the GI50 was 26.5 µM (inactive) in the experiment with SNB-75; > 100 µM (inactive) in the experiment on KM12; 77.8 µM (inactive) with K562; > 100 µM (inactive) in the experiment on TK-10; > 100 µM (inactive) in the experiment with A549; > 100 µM (inactive) in the experiment with OVCAR-8. The GI50 with RXF 393 is > 100 µM (inactive).

`OC(c1cc(-c2ccccc2)nc2c1ccc1ccccc12)C1CCCCN1` (stereo not given): the GI50 in the experiment with EKVX was 1.93 µM (inactive); in the experiment on SR, 1.18 µM (inactive); in the experiment on NCI-H226, 2.95 µM (inactive); in the experiment with ACHN, 1.83 µM (inactive); in the experiment on A498, 1.92 µM (inactive); in the experiment on SNB-19, 1.82 µM (inactive). Moreover, the GI50 was 1.87 µM (inactive) with MCF7; 1.97 µM (inactive) in the experiment with SF-295; 1.11 µM (active) with LOX IMVI; 1.79 µM (inactive) in the experiment on SK-MEL-2; 1.78 µM (inactive) in the experiment on SW-620; 1.58 µM (inactive) with NCI-H522. Further, the GI50 with HCT-116 is 1.63 µM (inactive); with SNB-75, 1.98 µM (inactive); with KM12, 1.86 µM (inactive); with K562, 2.54 µM (inactive); with TK-10, 1.75 µM (inactive); in the experiment on A549, 1.85 µM (inactive). Besides, the GI50 is 1.96 µM (inactive) with OVCAR-8 and 1.81 µM (inactive) with RXF 393.

`O=[N+]([O-])c1ccc(Cl)cc1/C=N/C12CC3CC(CC(C3)C1)C2`: the GI50 with EKVX is > 100 µM (inactive); in the experiment on SR, 7.03 µM (inactive); with NCI-H226, 61.5 µM (inactive); in the experiment on ACHN, > 87.9 µM (inactive); with A498, > 100 µM (inactive); in the experiment on SNB-19, 59.6 µM (inactive). The GI50 with MCF7 is 31.3 µM (inactive); with SF-295 it was 57.3 µM (inactive); in the experiment on LOX IMVI it was 19.6 µM (inactive); in the experiment with SK-MEL-2, > 66.8 µM (inactive); with SW-620, 22 µM (inactive); with NCI-H522, > 100 µM (inactive). Further, the GI50 with HCT-116 is 5.24 µM (inactive); in the experiment with SNB-75, > 68.1 µM (inactive); in the experiment on KM12 it was 29 µM (inactive); with K562, 4.98 µM (inactive); in the experiment on TK-10 it was > 100 µM (inactive); in the experiment on A549, > 96.8 µM (inactive). The GI50 was 43.1 µM (inactive) with OVCAR-8 and 53.1 µM (inactive) with RXF 393.

For the compound `CC1(C)NC2C(=O)c3c([nH]c4ccccc34)[C@]3(C)CCC1CC23` (stereo not given in full), the GI50 in the experiment with EKVX is > 100 µM (inactive); in the experiment on SR it was 55.2 µM (inactive); in the experiment with NCI-H226, > 100 µM (inactive); in the experiment on ACHN, > 100 µM (inactive); with A498, > 100 µM (inactive); in the experiment on MCF7, > 100 µM (inactive). Moreover, the GI50 in the experiment on SF-295, in the experiment on LOX IMVI, with SK-MEL-2, in the experiment with SW-620, in the experiment with NCI-H522 and with HCT-116 was > 100 µM (inactive) throughout. Besides, the GI50 is > 100 µM (inactive) in the experiment on SNB-75; > 100 µM (inactive) in the experiment on KM12; 96.8 µM (inactive) in the experiment with K562; > 100 µM (inactive) in the experiment on TK-10; > 100 µM (inactive) in the experiment with A549; > 100 µM (inactive) in the experiment with OVCAR-8. The GI50 with RXF 393 was > 100 µM (inactive).

Consider `O=C1CSC2=NC3=C(COC/C3=C\c3ccc(Br)cc3)C(c3ccc(Br)cc3)N12` (stereo not given), for which the GI50 in the experiment with EKVX is > 100 µM (inactive); with SR it was 15.3 µM (inactive); in the experiment on NCI-H226 it was > 100 µM (inactive); in the experiment with ACHN, 82.8 µM (inactive); with A498, > 100 µM (inactive); in the experiment with SNB-19, > 100 µM (inactive). The GI50 in the experiment with MCF7 is 44.4 µM (inactive); in the experiment on SF-295 it was 55.7 µM (inactive); with LOX IMVI it was 53.6 µM (inactive); in the experiment with SK-MEL-2 it was > 100 µM (inactive); in the experiment on SW-620, 52.4 µM (inactive); in the experiment on NCI-H522, 3.92 µM (inactive). The GI50 in the experiment with HCT-116 was 40.2 µM (inactive); with SNB-75, 70.5 µM (inactive); with KM12, 29.1 µM (inactive); with K562 it was 28.9 µM (inactive); in the experiment on TK-10, 97.9 µM (inactive); in the experiment on OVCAR-8 it was 74.6 µM (inactive). For the same compound, the GI50 in the experiment with RXF 393 is 37.8 µM (inactive).

Consider `CC(=O)CCCCn1c(=O)c2c(nc(Br)n2C)n(C)c1=O`, for which the GI50 in the experiment with EKVX was 28.3 µM (inactive); with SR, > 100 µM (inactive); with NCI-H226 it was > 100 µM (inactive); in the experiment on ACHN, > 100 µM (inactive); with A498, 95.9 µM (inactive); with SNB-19 it was > 100 µM (inactive). In addition, the GI50 in the experiment on MCF7 was > 100 µM (inactive); with SF-295, > 100 µM (inactive); in the experiment with LOX IMVI, > 100 µM (inactive); in the experiment with SK-MEL-2 it was > 100 µM (inactive); with SW-620, > 100 µM (inactive); in the experiment on NCI-H522, 10.4 µM (inactive). Also, the GI50 was > 100 µM (inactive) with HCT-116; > 100 µM (inactive) in the experiment with SNB-75; > 100 µM (inactive) with KM12; 62.1 µM (inactive) in the experiment with K562; > 100 µM (inactive) with TK-10; > 100 µM (inactive) with A549. The GI50 in the experiment on OVCAR-8 and with RXF 393 was > 100 µM (inactive) in each case.

On to `COc1ccccc1/C=C/C1=NN(c2cccc(S(=O)(=O)O)c2)C2(C1)SCC(=O)N2c1nc2ccccc2s1` (stereo not given), for which the GI50 in the experiment with EKVX is 68.2 µM (inactive); in the experiment on SR, 24.5 µM (inactive); in the experiment with NCI-H226, 31.7 µM (inactive); in the experiment with ACHN it was 55.7 µM (inactive); in the experiment with A498, 83.4 µM (inactive); in the experiment with SNB-19, > 100 µM (inactive). Besides, the GI50 is 44.6 µM (inactive) in the experiment on MCF7; 53.5 µM (inactive) with LOX IMVI; > 100 µM (inactive) in the experiment with SK-MEL-2; > 100 µM (inactive) in the experiment on SW-620; 36.7 µM (inactive) in the experiment with NCI-H522; > 100 µM (inactive) with HCT-116. The GI50 was > 100 µM (inactive) in the experiment with SNB-75; 41.1 µM (inactive) in the experiment with KM12; 36.2 µM (inactive) in the experiment on K562; 84.3 µM (inactive) with TK-10; 84.3 µM (inactive) with A549; 53.2 µM (inactive) in the experiment on OVCAR-8. Besides, the GI50 in the experiment with RXF 393 is > 100 µM (inactive).
